Laboratory results published in patent US20040014777A1, “Remedies for retinal nerve diseases containing 1,2-ethanediol derivatives or salts thereof” (Toyama Chemical Co., LTD., priority 2000, published 2004).

Tests used:
[1] = tested on: retinal ganglion cells; experiment: Protective effect on retinal ganglion cells in a glaucoma model (India ink injection and angle photocoagulation); type: in vivo, Wistar white rats; conditions: T-588 100 mg/kg orally
Excerpt: 1. Protective Effect on Retinal Ganglion Cells in a Glaucoma Model
Wistar white rats [male, body weight 290-310 g] were subjected to a general anesthesia by intraperitoneal injection of ketamine hydrochloride and xylazine hydrochloride. Subsequently, the rats were subjected to an instillation anesthesia with oxybuprocaine hydrochloride. After the measuring both the intraocular pressures with a pneumatonometer (Model Classic 30:Mentor, Norwell, Mass., U.S.A.), the anterior chamber of the right eye was punctured with a 30-gage needle to aspirate the aqueous humor, and then about 30 μL of 35% India ink was injected thereinto. […]
Immediately after the coagulation, ophthalmoscopy was performed in all the animals in order to confirm the occlusion of retina central artery. Five days after the angle photocoagulation, the intraocular pressure was measured to confirm an elevation of the intraocular pressure in the right eye. […] From the fluorescent microscopic photographs, the number of labeled cell was counted by means of an image analyzer. The labeling rate of retinal ganglion cell was calculated as a ratio of the number of labeled ganglion cells in the right eye to the number of labeled ganglion cells in the control eye (left eye).
On the eighth day from the angle photocoagulation, the number of alive retinal ganglion cells was counted and compared with that of a normal eye. […]

[2] = tested on: nerve growth factor; conditions: WO96/12717; cited from earlier work
[3] = tested on: neuron cell death caused by amyloid β-protein; conditions: Society for Neuroscience Abstracts Vol. 24, 1998; cited from earlier work
[4] = tested on: retinal ganglion cells; experiment: Protective effect on retinal ganglion cells in a retinal ischemia-reperfusion rat model; type: in vivo, SD rats; conditions: fourteen days after retinal ischemia-reperfusion, n=8, control group 40%
Experimental: 2. Protective Effect on Retinal Ganglion Cells in a Retinal Ischemia-Reperfusion Rat Model
As a retinal ischemia-reperfusion model, the manner in Steven Roth et al. (Experimental Eye Research, Vol. 65, Pages 771-779, 1997) was used with partial modification.
As the test animals, SD rats (Japan SLC), 9 weeks old (body weight: about 300 g) were used. The operation was carried out under a halothane-anesthetized condition (introduction 5%, maintenance 2%). First, the animal was fixed on the table in a lateral decubitus, and the middle part of the skin between the external auditory canal and the external ocular angle was incised. After peeling off the temporal muscle from the cranium, the tissues surrounding the optic nerve were peeled off to expose the optic nerve. The retina central vessels were ligated together with the optic nerve with a 4-0 silk thread so as to avoid the damage of optic nerve. Thirty minutes after, the silk thread was released to reperfuse the blood flow. T-588 was orally administered 30 minutes before the ischemic treatment and just after the reperfusion. From the day next to the operation, T-588 was orally administered twice a day. […] The number of retinal ganglion cells was counted in the two region from the optic disk to 0.5 mm distant point and a ratio of the number of neurons in the ischemic eye to that in the normal eye was calculated on each individual. […]

CCN(CC)CCOC[C@H](O)c1ccc2sccc2c1.Cl [T-588, (R)-1-(benzo[b]thiophen-5-yl)-2-[2-(N,N-diethylamino)ethoxy]ethanol hydrochloride]
survival rate of retinal ganglion cells (tested eye compared with normal eye) ([1]; eighth day from angle photocoagulation, n=9, control group 78%): 91% | influence on the elevation of intraocular pressure ([1]; glaucoma model rats): no influence | effect on nerve growth factor activity [2]: nerve growth factor activity-improving effect | effect against neuron cell death caused by amyloid β-protein [3]: protective effects | survival rate of retinal ganglion cells (tested eye compared with normal eye) ([4]; T-588 10 mg/kg orally twice a day): 57% | survival rate of retinal ganglion cells (tested eye compared with normal eye) ([4]; T-588 30 mg/kg orally twice a day): 70%
